Test results from patent US20260108533A1, “COMPOSITIONS AND METHODS FOR THE TREATMENT OF MEIBOMIAN GLAND DYSFUNCTION” (Azura Ophthalmics Ltd., priority 2019, published 2026).

Test system: stratum corneum (SC)
Experiment: Stratum corneum (SC) tape stripping, keratolytic efficacy
Type: in vivo
Settings: for increase of SC removal: for 3-6 hours
Text: Keratolytic efficacy of an agent is optionally assessed by examining stratum corneum (SC) tape strippings to measure the total SC protein amount removed and on the tape. The amount of skin mass on the tape is directly proportional to the amount of keratolysis. Salicylic acid is a keratolytic, while retinoic acid is known mostly for its comedolytic properties, and benzoyl peroxide is known mostly for its anti-microbial mechanism. Here, all three were examined for relative keratolytic efficacy.

| SMILES | effectiveness in interfering with SC cohesion (After 3 hours) | increase of SC removal | keratolytic effects (tape stripping) (overall comparison) |
| --- | --- | --- | --- |
| O=C(OOC(=O)c1ccccc1)c1ccccc1 [benzoyl peroxide] | significantly more effective in interfering with SC cohesion than either salicylic acid or retinoic acid | about 10% | comparable to that of salicylic acid and retinoic acid |
| CC1=C(/C=C/C(C)=C/C=C/C(C)=C/C(=O)O)C(C)(C)CCC1 [retinoic acid] |  | approximately 35% |  |
| O=C(O)c1ccccc1O [salicylic acid] |  | about 10% |  |
